Assays:
Assay type in all cases: cell-based
IL-17A = assay: Human TH17 cytokine inhibition measured by ELISA: IL-17A; settings: human CD4+ T cells under TH17-polarizing conditions, 3 days, supernatant ELISA
Experimental: (§1) Human TH17 Cytokine Inhibition as Measured by ELISA
(§2) Peripheral blood mononuclear cells (PBMCs) were sourced from freshly prepared leukocyte enriched plasma (buffy coat) from healthy donors (New York Blood Center). PBMCs were isolated by density gradient centrifugation using Ficoll-Paque™ PLUS (GE Healthcare). Human CD4+ T cells were seeded into 96-well plates (5×10^4 cells/well) and activated with plate-bound anti-human (h)-CD3 antibody and soluble h-aCD28 (both at 1 ug/ml; eBioscience) and differentiated into TH17 cells with 20 ng/mL h-IL-6, 5 ng/mL h-TGF-β1, 10 ng/mL h-IL-23 (eBioscience) and 10 ng/mL IL-1β (Miltenyi Biotec) in serum-free TexMACS Medium (Miltenyi Biotec) supplemented with 1% Penicillin/Streptomycin (Lonza) for 3 days. CD4+ T cells propagated under TH17-polarizing conditions were cultured in the presence or absence of various concentrations of compounds with a final concentration of 0.1% DMSO. Supernatants were collected and stored at −20° C. until assayed for IL-17A, IL-17F and IL-21 levels by “Ready-Set-Go” ELISA kits (eBioscience) as per manufacturer's instructions. Endpoint absorbance was read at 450 nm using a microplate reader (Perkin Elmer).

IL-17F = assay: Human TH17 cytokine inhibition measured by ELISA: IL-17F; settings: 72 h; human CD4+ T cells under TH17-polarizing conditions, 3 days, supernatant ELISA
Experimental: as §1, §2

IL-21 = assay: Human TH17 cytokine inhibition measured by ELISA: IL-21; settings: 72 h; human CD4+ T cells under TH17-polarizing conditions, 3 days, supernatant ELISA
Experimental: as §1, §2

IL-22 = assay: Human TH17 cytokine inhibition measured by ELISA: IL-22; settings: 72 h; human CD4+ T cells under TH17-polarizing conditions, 3 days, supernatant ELISA

IC50 (IL-17A; 72 h) | IC50 (IL-17F) | IC50 (IL-21) | IC50 (IL-17A) | IC50 (IL-22) | Compound
< 10 µM | < 10 µM | < 10 µM |  |  | C[C@@H]1C[C@H](Cn2ncc3cc(-c4cn[nH]c4)ccc32)CN1S(=O)(=O)c1ccccc1 (racemic) [Example 33, rac.-cis-1-((-5-methyl-1-(phenylsulfonyl)pyrrolidin-3-yl)methyl)-5-(1H-pyrazol-4-yl)-1H-indazole]
 |  |  | < 10 µM |  | C[C@@H]1C[C@@H](Cn2ncc3cc(-c4cn[nH]c4)ccc32)CN1S(=O)(=O)c1ccccc1 (racemic) [Example 34, rac.-trans-1-((-5-methyl-1-(phenylsulfonyl)pyrrolidin-3-yl)methyl)-5-(1H-pyrazol-4-yl)-1H-indazole]
< 10 µM | < 10 µM | < 10 µM |  |  | C[C@H]1C[C@@H](Cn2ncc3cc(-c4cn[nH]c4)ccc32)CN1C(=O)CCc1ccccc1 (racemic) [Example 46, rac.-cis-1-(4-((5-(1H-pyrazol-4-yl)-1H-indazol-1-yl)methyl)-2-methylpyrrolidin-1-yl)-3-phenylpropan-1-one]
< 10 µM | < 10 µM | < 10 µM |  |  | C[C@@H]1C[C@@H](Cn2ncc3cc(-c4cn[nH]c4)ccc32)CN1C(=O)CCc1ccccc1 (racemic) [Example 47, rac.-trans-1-(4-((5-(1H-pyrazol-4-yl)-1H-indazol-1-yl)methyl)-2-methylpyrrolidin-1-yl)-3-phenylpropan-1-one]
< 10 µM | < 10 µM | < 10 µM |  |  | O=C(CCc1ccccc1)N1CCC(Cn2ncc3cc(-c4cn[nH]c4)ccc32)CC1 [Example 3, 1-(4-((5-(1H-pyrazol-4-yl)-1H-indazol-1-yl)methyl)piperidin-1-yl)-3-phenylpropan-1-one]
< 10 µM | < 10 µM | < 10 µM |  |  | O=C(CC1CCCCC1)N1CCC(Cn2ncc3cc(-c4cn[nH]c4)ccc32)CC1 [Example 4, 1-(4-((5-(1H-pyrazol-4-yl)-1H-indazol-1-yl)methyl)piperidin-1-yl)-2-cyclohexylethanone]
< 10 µM | < 10 µM | < 10 µM |  |  | O=C(Cc1ccccc1)N1CCC(Cn2ncc3cc(-c4cn[nH]c4)ccc32)CC1 [Example 7, 1-(4-((5-(1H-pyrazol-4-yl)-1H-indazol-1-yl)methyl)piperidin-1-yl)-2-phenylethanone]
< 10 µM | < 10 µM | < 10 µM |  |  | O=C(CCCc1ccccc1)N1CCC(Cn2ncc3cc(-c4cn[nH]c4)ccc32)CC1 [Example 8, 1-(4-((5-(1H-pyrazol-4-yl)-1H-indazol-1-yl)methyl)piperidin-1-yl)-4-phenylbutan-1-one]
< 10 µM | < 10 µM |  |  |  | CC1(C)CC(Cn2ncc3cc(-c4cn[nH]c4)ccc32)CN1C(=O)Cc1ccccc1 (centres unmarked) [Example 19, 1-(4-((5-(1H-pyrazol-4-yl)-1H-indazol-1-yl)methyl)-2,2-dimethylpyrrolidin-1-yl)-2-phenylethanone]
< 10 µM | < 10 µM | < 10 µM |  | < 10 µM | O=S(=O)(c1ccccc1)N1CCC(Cn2ncc3cc(-c4cn[nH]c4)ccc32)CC1 [Example 30, 1-((1-(phenylsulfonyl)piperidin-4-yl)methyl)-5-(1H-pyrazol-4-yl)-1H-indazole]
< 10 µM | < 10 µM | < 10 µM |  | < 10 µM | O=S(=O)(Cc1ccccc1)N1CCC(Cn2ncc3cc(-c4cn[nH]c4)ccc32)CC1 [Example 32, 1-((1-(benzylsulfonyl)piperidin-4-yl)methyl)-5-(1H-pyrazol-4-yl)-1H-indazole]
< 10 µM | < 10 µM | < 10 µM |  |  | CC1(C)CC(Cn2ncc3cc(-c4cn[nH]c4)ccc32)CN1S(=O)(=O)c1ccccc1 (centres unmarked) [Example 35, 1-((5,5-dimethyl-1-(phenylsulfonyl)pyrrolidin-3-yl)methyl)-5-(1H-pyrazol-4-yl)-1H-indazole]
< 10 µM | < 10 µM |  |  |  | O=S(=O)(c1ccc(F)cc1)N1CCC(Cn2ncc3cc(-c4cn[nH]c4)ccc32)CC1 [Example 37, 1-((1-((4-fluorophenyl)sulfonyl)piperidin-4-yl)methyl)-5-(1H-pyrazol-4-yl)-1H-indazole]
< 10 µM | < 10 µM |  |  |  | N#Cc1ccc(S(=O)(=O)N2CCC(Cn3ncc4cc(-c5cn[nH]c5)ccc43)CC2)cc1 [Example 38, 4-(4-((5-(1H-pyrazol-4-yl)-1H-indazol-1-yl)methyl)piperidin-1-ylsulfonyl)benzonitrile]
< 10 µM | < 10 µM |  |  |  | O=S(=O)(c1cccnc1)N1CCC(Cn2ncc3cc(-c4cn[nH]c4)ccc32)CC1 [Example 39, 5-(1H-pyrazol-4-yl)-1-((1-(pyridin-3-ylsulfonyl)piperidin-4-yl)methyl)-1H-indazole]
< 10 µM | < 10 µM |  |  |  | Cc1ccc(S(=O)(=O)N2CCC(Cn3ncc4cc(-c5cn[nH]c5)ccc43)CC2)cc1 [Example 42, 5-(1H-pyrazol-4-yl)-1-((1-tosylpiperidin-4-yl)methyl)-1H-indazole]
< 10 µM | < 10 µM |  |  |  | N#Cc1cccc(S(=O)(=O)N2CCC(Cn3ncc4cc(-c5cn[nH]c5)ccc43)CC2)c1 [Example 43, 3-((4-((5-(1H-pyrazol-4-yl)-1H-indazol-1-yl)methyl)piperidin-1-yl)sulfonyl)benzonitrile]
< 10 µM | < 10 µM |  |  |  | O=S(=O)(c1ccc(C(F)F)cc1)N1CCC(Cn2ncc3cc(-c4cn[nH]c4)ccc32)CC1 [Example 44, 1-((1-((4-(difluoromethyl)phenyl)sulfonyl)piperidin-4-yl)methyl)-5-(1H-pyrazol-4-yl)-1H-indazole]
